Experiments:
Format in all cases: in vivo, human
[1] = system: growth hormone concentration in the plasma; experiment: Evaluation of growth hormone secretion promoting effect (plasma growth hormone, 24-week oral ingestion); settings: for growth hormone concentration in the plasma, 0 weeks (before ingestion) / growth hormone concentration in the plasma, 24 weeks (after ingestion) / growth hormone concentration in the plasma, Change rate (24 weeks - 0 weeks): High Dose Group (200 mg/daily, oral), mean±SD; for growth hormone concentration in the plasma, 0 weeks (before ingestion): baseline
Procedure: In order to confirm a change in the growth hormone quantity before and after ingestion of the nicotinamide mononucleotide, a test was conducted on healthy males and females aged 50 to 70 years.
As a sample of Working Example 2, a capsule formulation containing the nicotinamide mononucleotide and starch (200 mg of the nicotinamide mononucleotide in 4 capsules) (manufactured by SHINKOWA PHARMACEUTICAL Co., Ltd.) was used.
(§1) Each group consisting of five healthy males and females aged 50 to 70 years in an unbiased age group ingested the above capsule formulation once a day by 4 capsules for 24 weeks (total 10 subjects, 200 mg/daily ingestion). In order to conduct appropriate evaluations, those who had been regularly using medical products for chronic diseases, those who had been consuming healthy foods that may affect clinical research, and those who were currently participating in other clinical researches or clinical trials or had participated in other clinical researches or clinical trials within the last three months were excluded from the subject for the evaluation. The capsule formulations were ingested at 10 am (between meals and fasting state) together with water or lukewarm water (oral administration).
Measurement of the growth hormone quantity in the plasma was conducted by requesting the measurement to an external public organization according to a usual method. FIGS. 4a to 4c indicate transitions of the growth hormone concentration (ng/ml) in the plasma for 24 weeks. FIG. 4a represents the transitions of the whole subjects; FIG. 4b represents the transitions of the male subjects; FIG. 4c represents the transitions of the female subjects. Further, FIGS. 5a to 5c indicate change rates (%) of the blood growth hormone concentration up to 24 weeks when the nicotinamide mononucleotide was orally administered to the subjects for 24 weeks. FIG. 5a represents the change rates of the whole subjects; FIG. 5b represents the change rates of the male subjects; FIG. 5c represents the change rates of the female subjects. Further, Table 2 indicates the numerical values of the growth hormone concentration (ng/ml) in the plasma before the ingestion of the nicotinamide mononucleotide (0 weeks) and after the ingestion of the nicotinamide mononucleotide (24 weeks). Note that the numerical values represent mean values±standard deviation.

[2] = system: calcitonin concentration in the plasma; experiment: Evaluation of calcitonin secretion promoting effect (plasma calcitonin, 24-week oral ingestion); settings: for calcitonin concentration in the plasma, 0 weeks (before ingestion) / calcitonin concentration in the plasma, 24 weeks (after ingestion) / calcitonin concentration in the plasma, Change rate (24 weeks - 0 weeks): High Dose Group (200 mg/daily, oral), mean±SD; for calcitonin concentration in the plasma, 0 weeks (before ingestion): baseline
Procedure: In order to confirm a change in the calcitonin quantity before and after ingestion of the nicotinamide mononucleotide, a test was conducted on healthy males and females aged 50 to 70 years.
As a sample of Working Example 12, a capsule formulation containing the nicotinamide mononucleotide and starch (200 mg of the nicotinamide mononucleotide in 4 capsules) (manufactured by SHINKOWA PHARMACEUTICAL Co., Ltd.) was used.
as §1, with “above high dose” for “above”
Measurement of the calcitonin quantity in the plasma was conducted by requesting the measurement to an external public organization according to a usual method. FIGS. 24a to 24c indicate transitions of the calcitonin concentration (pg/ml) in the plasma for 24 weeks. FIG. 24a represents the transitions of the whole subjects; FIG. 24b represents the transitions of the male subjects; FIG. 24c represents the transitions of the female subjects. Further, FIGS. 25a to 25c indicate change rates (%) of the blood calcitonin concentration up to 24 weeks when the nicotinamide mononucleotide was orally administered to the subjects for 24 weeks. FIG. 25a represents the change rates of the whole subjects; FIG. 25b represents the change rates of the male subjects; FIG. 25c represents the change rates of the female subjects. Further, Table 11 indicates the numerical values of the calcitonin concentration (pg/ml) in the plasma before the ingestion of the nicotinamide mononucleotide (0 weeks) and after the ingestion of the nicotinamide mononucleotide (24 weeks). Note that the numerical values represent mean values±standard deviation.

[3] = Safety observation in subjects after ingestion for 24 weeks (complaints, stool abnormality); settings: healthy males and females aged 50 to 70 years, oral
Procedure: as §1, with “the above low dose capsule formulation” for “the above capsule formulation”, “10 subjects, a low dose group: 100 mg/daily ingestion). On the other hand, each group consisting of five healthy males and females aged 50 to 70 years in the unbiased age group ingested the above high dose capsule formulation once a day by 4 capsules for 24 weeks (total 10 subjects, a high dose group: 200 mg/daily” for “10 subjects, 200 mg/daily”, “or clinical trials, or had” for “or clinical trials or had”

## NC(=O)c1ccc[n+]([C@@H]2O[C@H](COP(=O)([O-])O)[C@@H](O)[C@H]2O)c1 [nicotinamide mononucleotide]
[1]; Female
  growth hormone concentration in the plasma, 0 weeks (before ingestion): 0.91 ± 0.28 ng/mL
  growth hormone concentration in the plasma, 24 weeks (after ingestion): 2.14 ± 2.22 ng/mL
  growth hormone concentration in the plasma, Change rate (24 weeks - 0 weeks): 1.24 ± 2.31 ng/mL
[1]; Male
  growth hormone concentration in the plasma, 0 weeks (before ingestion): 0.21 ± 0.12 ng/mL
  growth hormone concentration in the plasma, 24 weeks (after ingestion): 2.41 ± 3.44 ng/mL
  growth hormone concentration in the plasma, Change rate (24 weeks - 0 weeks): 2.20 ± 3.34 ng/mL
[1]; Whole Subjects
  growth hormone concentration in the plasma, 0 weeks (before ingestion): 0.56 ± 0.42 ng/mL
  growth hormone concentration in the plasma, 24 weeks (after ingestion): 2.28 ± 2.73 ng/mL
  growth hormone concentration in the plasma, Change rate (24 weeks - 0 weeks): 1.72 ± 2.76 ng/mL
[1]; oral, 200 mg/daily, 24 weeks, FIGS. 4a-4c, 5a-5c
  growth hormone concentrations in the plasma, effect of ingestion (in words): increased
[2]; Female
  calcitonin concentration in the plasma, 0 weeks (before ingestion): 0.60 ± 0.10 pg/mL
  calcitonin concentration in the plasma, 24 weeks (after ingestion): 0.71 ± 0.20 pg/mL
  calcitonin concentration in the plasma, Change rate (24 weeks - 0 weeks): 0.11 ± 0.10 pg/mL
[2]; Male
  calcitonin concentration in the plasma, 0 weeks (before ingestion): 2.35 ± 1.97 pg/mL
  calcitonin concentration in the plasma, 24 weeks (after ingestion): 2.44 ± 2.21 pg/mL
  calcitonin concentration in the plasma, Change rate (24 weeks - 0 weeks): 0.09 ± 0.37 pg/mL
[2]; Whole Subjects
  calcitonin concentration in the plasma, 0 weeks (before ingestion): 1.48 ± 1.61 pg/mL
  calcitonin concentration in the plasma, 24 weeks (after ingestion): 1.58 ± 1.74 pg/mL
  calcitonin concentration in the plasma, Change rate (24 weeks - 0 weeks): 0.10 ± 0.25 pg/mL
[2]; oral, 200 mg/daily, 24 weeks, FIGS. 24a-24c, 25a-25c
  calcitonin concentrations in the plasma, effect of ingestion (in words): increased
[3]; 100 mg and 200 mg/daily groups
  unidentified complaint (abdominal pain, nausea, vomiting, headache) or stool abnormality after the ingestion for 24 weeks: did not show any unidentified complaint
[3]; 100 mg/daily
  unidentified complaint (abdominal pain, nausea, vomiting, headache) or stool abnormality after the ingestion for 24 weeks: did not show any unidentified complaint
[3]; 200 mg/daily
  unidentified complaint (abdominal pain, nausea, vomiting, headache) or stool abnormality after the ingestion for 24 weeks: did not show any unidentified complaint
